Experimental data published in US8470351B2, “Embedding antibiotic compounds in solid polymers” (The Research Foundation of the City University of New York, priority 2007, dated 2013).

What was measured:
[1] = Antimicrobial property of PVC surface with embedded agent; settings: agent added to PVC heated to 350° F., 10 g/square meter of finished surface; after pressing and cooling
Experimental: To a preparation of PVC prepared for finishing and heated to 350° F. is added the agent bis-1′,3′-(1-hexadecyl)-1,4-diazoniabicyclo[2.2.2]octane-2′-propanol tetrachloride in an amount of 10 g/square meter of finished surface. After pressing and cooling samples the surface is antimicrobial.

Escherichia coli = experiment: Antimicrobial assessment of embedded polyester fabric on mineral salts agar; assay type: cell-based; settings: agent embedded in three polyester fabrics ("144×90", "Spandex" 5% lycra with polyester, "Darlington"), incubated at 28° C. for 28 days
Experimental: (§1) Three types of polyester fabric are embedded with bis-1′,3′-(1-hexadecyl)-1,4-diazoniabicyclo[2.2.2]octane-2′-propanol tetrachloride. Three polyester samples supplied by Gar are tested—a) “144×90”, b) “Spandex” which is 5% lycra with polyester, and c) “Darlington.” Each fabric sample is placed onto a mineral salts agar medium and then inoculated with either Staphylococus aureus or Escherichia coli. The inoculated specimen is then incubated at 28° C. for 28 days, in order to allow adequate time for bacterial growth. The fabric samples show a complete kill of both Staphylococus aureus and Escherichia coli.

Staphylococus aureus = experiment: as above; assay type: cell-based; settings: agent embedded in three polyester fabrics ("144×90", "Spandex" 5% lycra with polyester, "Darlington"), incubated at 28° C. for 28 days
Experimental: as §1

Which “antimicrobial property of the surface” value [1] does the source give for `CCCCCCCCCCCCCCCC[N+]12CC[N+](CC(O)C[N+]34CC[N+](CCCCCCCCCCCCCCCC)(CC3)CC4)(CC1)CC2.[Cl-].[Cl-].[Cl-].[Cl-]` (stereo not drawn) [bis-1′,3′-(1-hexadecyl)-1,4-diazoniabicyclo[2.2.2]octane-2′-propanol tetrachloride] here?
Its value is “antimicrobial”.

And the “kill of Escherichia coli on embedded fabric samples” value (Escherichia coli)?
The value was “complete kill”.

And the “kill of Staphylococus aureus on embedded fabric samples” value (Staphylococus aureus)?
Its value is “complete kill”.
